From ChEMBL document CHEMBL4118233, “Rational design of bis-indolylmethane-oxadiazole hybrids as inhibitors of thymidine phosphorylase” (Bioorg Med Chem, 2018)

Target: Thymidine phosphorylase (Escherichia coli K-12, UniProt P07650)
Test: Inhibition of Escherichia coli thymidine phosphorylase pretreated for 10 mins followed by substrate addition measured at 10 mins interval for 30 mins by spectrophotometric method
Details: not given; call rule not given here

Chain of Thymidine phosphorylase (P07650 whole entry): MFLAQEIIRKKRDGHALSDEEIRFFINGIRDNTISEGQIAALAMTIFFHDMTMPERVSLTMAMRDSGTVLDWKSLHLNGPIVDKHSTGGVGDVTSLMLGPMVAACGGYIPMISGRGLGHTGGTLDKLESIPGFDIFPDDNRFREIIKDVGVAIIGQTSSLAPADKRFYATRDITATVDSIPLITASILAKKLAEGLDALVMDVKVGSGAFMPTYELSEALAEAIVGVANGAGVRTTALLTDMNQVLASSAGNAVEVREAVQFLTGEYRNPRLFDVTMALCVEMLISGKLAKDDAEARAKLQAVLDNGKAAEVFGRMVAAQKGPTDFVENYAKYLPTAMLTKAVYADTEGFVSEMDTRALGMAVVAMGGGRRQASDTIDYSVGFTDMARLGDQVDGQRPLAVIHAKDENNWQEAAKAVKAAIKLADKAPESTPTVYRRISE

| IC50 | Structure (SMILES) |
| --- | --- |
| Not Active | O=[N+]([O-])c1ccc(-c2nnc(-c3ccc(C(c4c[nH]c5ccc(Cl)cc45)c4c[nH]c5ccc(Cl)cc45)cc3)o2)cc1 |
| Not Active | Cc1ccc(-c2nnc(-c3ccc(C(c4c[nH]c5ccc(Cl)cc45)c4c[nH]c5ccc(Cl)cc45)cc3)o2)cc1 |
| Not Active | Cc1ccccc1-c1nnc(-c2ccc(C(c3c[nH]c4ccc(Cl)cc34)c3c[nH]c4ccc(Cl)cc34)cc2)o1 |
| Not Active | Clc1ccc2[nH]cc(C(c3ccc(-c4nnc(-c5cccnc5)o4)cc3)c3c[nH]c4ccc(Cl)cc34)c2c1 |
| Not Active | O=[N+]([O-])c1cccc(-c2nnc(-c3ccc(C(c4c[nH]c5ccc(Cl)cc45)c4c[nH]c5ccc(Cl)cc45)cc3)o2)c1 |

Continued, molecule first:

| Structure (SMILES) | IC50 |
| --- | --- |
| Clc1ccc2[nH]cc(C(c3ccc(-c4nnc(-c5ccncc5)o4)cc3)c3c[nH]c4ccc(Cl)cc34)c2c1 | Not Active |
| Cc1cccc(-c2nnc(-c3ccc(C(c4c[nH]c5ccc(Cl)cc45)c4c[nH]c5ccc(Cl)cc45)cc3)o2)c1 | Not Active |

Same assay, conditions: read-out: IC50

| IC50 [µM] | Structure (SMILES) |
| --- | --- |
| 43.5 | Oc1ccccc1-c1nnc(-c2ccc(C(c3c[nH]c4ccc(Cl)cc34)c3c[nH]c4ccc(Cl)cc34)cc2)o1 |
| 45.2 | COc1ccc(O)c(-c2nnc(-c3ccc(C(c4c[nH]c5ccc(Cl)cc45)c4c[nH]c5ccc(Cl)cc45)cc3)o2)c1 |
| 54.6 | Clc1cccc(-c2nnc(-c3ccc(C(c4c[nH]c5ccc(Cl)cc45)c4c[nH]c5ccc(Cl)cc45)cc3)o2)c1 |

The next lines start with the molecule.

| Structure (SMILES) | IC50 [µM] |
| --- | --- |
| Fc1cccc(-c2nnc(-c3ccc(C(c4c[nH]c5ccc(Cl)cc45)c4c[nH]c5ccc(Cl)cc45)cc3)o2)c1 | 29.4 |
| Fc1ccc(-c2nnc(-c3ccc(C(c4c[nH]c5ccc(Cl)cc45)c4c[nH]c5ccc(Cl)cc45)cc3)o2)cc1 | 9.1 |
| Oc1ccc(-c2nnc(-c3ccc(C(c4c[nH]c5ccc(Cl)cc45)c4c[nH]c5ccc(Cl)cc45)cc3)o2)cc1O | 12.2 |
| Oc1cccc(-c2nnc(-c3ccc(C(c4c[nH]c5ccc(Cl)cc45)c4c[nH]c5ccc(Cl)cc45)cc3)o2)c1O | 9.3 |
| Clc1ccc2[nH]cc(C(c3ccc(-c4nnc(-c5ccccn5)o4)cc3)c3c[nH]c4ccc(Cl)cc34)c2c1 | 38.4 |
| Fc1ccccc1-c1nnc(-c2ccc(C(c3c[nH]c4ccc(Cl)cc34)c3c[nH]c4ccc(Cl)cc34)cc2)o1 | 17.3 |
| Oc1ccc(-c2nnc(-c3ccc(C(c4c[nH]c5ccc(Cl)cc45)c4c[nH]c5ccc(Cl)cc45)cc3)o2)cc1 | 24.5 |
| Clc1ccc(-c2nnc(-c3ccc(C(c4c[nH]c5ccc(Cl)cc45)c4c[nH]c5ccc(Cl)cc45)cc3)o2)cc1 | 46.2 |
| Oc1cccc(-c2nnc(-c3ccc(C(c4c[nH]c5ccc(Cl)cc45)c4c[nH]c5ccc(Cl)cc45)cc3)o2)c1 | 53.5 |
| Clc1ccc2[nH]cc(C(c3ccc(-c4nnc(-c5ccccc5Cl)o4)cc3)c3c[nH]c4ccc(Cl)cc34)c2c1 | 29.3 |
| COc1ccc(-c2nnc(-c3ccc(C(c4c[nH]c5ccc(Cl)cc45)c4c[nH]c5ccc(Cl)cc45)cc3)o2)cc1O | 33.5 |
| COc1ccc(-c2nnc(-c3ccc(C(c4c[nH]c5ccc(Cl)cc45)c4c[nH]c5ccc(Cl)cc45)cc3)o2)c(O)c1 | 35.2 |
| Oc1ccc(O)c(-c2nnc(-c3ccc(C(c4c[nH]c5ccc(Cl)cc45)c4c[nH]c5ccc(Cl)cc45)cc3)o2)c1 | 6.1 |
| Oc1ccc(-c2nnc(-c3ccc(C(c4c[nH]c5ccc(Cl)cc45)c4c[nH]c5ccc(Cl)cc45)cc3)o2)c(O)c1 | 3.5 |
| O=[N+]([O-])c1ccccc1-c1nnc(-c2ccc(C(c3c[nH]c4ccc(Cl)cc34)c3c[nH]c4ccc(Cl)cc34)cc2)o1 | 64.2 |
